According to patent US20240076327A1 (priority 2020, published 2024):
Where a SMILES comes first, the peptide text is derived from it. Bridges are numbered along the chain shown (N, C = ends). Where no end group is shown, it is not given here.

Tests used:
[1] = buffer, 0 h, pH 9
physchem = settings: buffer, pH 9

Row | Compound | observed overall stability (percentage of remaining parent peak) [1] [%] | remaining at 24 h (physchem) [%] | remaining at 48 h (physchem) [%] | remaining at 72 h (physchem) [%] | remaining at 96 h (physchem) [%] | remaining at 120 h (physchem) [%] | remaining at 144 h (physchem) [%] | remaining at 168 h (physchem) [%] | remaining at 360 h (physchem) [%]
1 | CC[C@H](C)[C@H](NC(=O)[C@H](C)N)C(=O)N[C@H]1CSSC[C@@H]2NC(=O)[C@@H]3CSSC[C@@H](C(=O)N[C@@H](CCCNC(=N)N)C(=O)N[C@@H](CCCCN)C(=O)N[C@@H](CC(=O)O)C(=O)N[C@@H](CCC(=O)O)C(=O)N4CCC[C@H]4C(=O)O)NC(=O)[C@H](Cc4ccc(O)cc4)NC(=O)[C@H](CO)NC(=O)[C@H](C(C)C)NC(=O)CNC(=O)[C@H](CC(N)=O)NC(=O)[C@H](CO)NC(=O)[C@H](CCC(=O)O)NC(=O)[C@H](C)NC(=O)[C@H](CCCCN)NC(=O)[C@H](CSSC[C@H](NC(=O)[C@@H]4CCCN4C(=O)[C@H](CCCNC(=N)N)NC(=O)[C@H](CC(=O)O)NC(=O)[C@H](C)NC(=O)CNC(=O)[C@H]([C@@H](C)O)NC1=O)C(=O)N[C@@H](C)C(=O)N[C@@H](C)C(=O)N[C@H]1CSSC[C@H](NC1=O)C(=O)N1CCC[C@H]1C(=O)N3)NC(=O)[C@H](CO)NC(=O)[C@H]([C@@H](C)O)NC(=O)CNC(=O)[C@@H]1CCCN1C2=O [κ-hexatoxin-Hv1c] (H-AICTGADRPCAACCPCCPGTSCKAESNGVSYCRKDEP-OH; disulfide 3-17, 10-22, 13-14, 16-32) | 100 | 91 | 80 | 75 | 61 | 51 | 41 | 30 | 9
2 | GSQYCVPVDQPCSLNTQPCCDDATCTQERNENGHTVYYCRA (disulfide 5-20, 12-25, 19-39) [GS-ω/κ-hexatoxin-Hv1h] | 100 | 94 | 91 | 82 | 83 | 83 | 81 | 69 | 50
